Values quoted from earlier work as cited in patent US20240217946A1, “ANTIDEPRESSANT AND ANXIOLYTIC SUBSTITUTED CINNAMAMIDE COMPOUND” (TASLY PHARMACEUTICAL GROUP CO., LTD., priority 2021, published 2024).

System: mice
Details: Patent C; cited from earlier work

## CC(C)CNC(=O)/C=C/c1cc2c(c(C(F)(F)F)c1)OCO2 [Compound I-5]
  effective anxiolytic dosage in mice elevated plus maze experiment: 10 mg/kg
